From patent publication US9617229B2, “Phenylmorpholines and analogues thereof” (Research Triangle Institute, priority 2010, dated 2017)

Molecular target: DAT (Rattus norvegicus, UniProt P23977)
Experiment: DA uptake inhibition
Type: biochemical
Details: Table 5

DAT, sequence (P23977 whole entry): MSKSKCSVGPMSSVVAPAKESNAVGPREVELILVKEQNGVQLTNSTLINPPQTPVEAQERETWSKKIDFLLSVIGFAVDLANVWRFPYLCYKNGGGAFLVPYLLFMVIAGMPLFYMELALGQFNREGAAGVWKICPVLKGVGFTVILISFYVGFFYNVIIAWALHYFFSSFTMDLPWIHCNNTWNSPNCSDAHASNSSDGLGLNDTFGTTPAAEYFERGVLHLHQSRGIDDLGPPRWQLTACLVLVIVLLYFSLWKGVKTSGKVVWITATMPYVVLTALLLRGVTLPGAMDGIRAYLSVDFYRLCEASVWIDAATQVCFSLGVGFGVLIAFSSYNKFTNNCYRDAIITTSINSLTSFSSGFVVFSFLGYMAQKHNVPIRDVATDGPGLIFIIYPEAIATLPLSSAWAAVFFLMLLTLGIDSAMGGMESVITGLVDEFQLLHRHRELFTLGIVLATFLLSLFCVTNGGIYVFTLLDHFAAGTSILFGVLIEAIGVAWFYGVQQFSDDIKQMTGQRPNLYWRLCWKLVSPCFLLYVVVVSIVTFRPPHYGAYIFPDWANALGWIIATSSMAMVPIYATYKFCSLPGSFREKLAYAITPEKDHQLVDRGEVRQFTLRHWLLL

SMILES | DA Up (%)
C[C@H]1CO[C@@H](c2ccc(Cl)cc2)CN1 [PAL 899, (2S,5S)-2-(4-Chloro-phenyl)-5-methyl-morpholine] | 90%
Cc1ccc([C@H]2CN[C@@H](C)CO2)cc1 [PAL 914, (2S,5S)-5-Methyl-2-p-tolyl-morpholine] | 88%
